Values quoted from earlier work as cited in patent publication US11028348B2, “Naturally-derived antimicrobial cleaning solutions” (ProNatural Brands LLC, priority 2014, dated 2021).

Conditions: standard pKa

pKa1: 3.1 | pKa2: 4.8 | pKa3: 6.4
Structure (SMILES): O=C(O)CC(O)(CC(=O)O)C(=O)O [citric acid]
